The text below walks through data of US20250066369A1, “BICYCLIC PHTHALAZIN-1(2H)-ONE DERIVATIVES AND RELATED USES” (NodThera Limited, priority 2022, published 2025).

The subject of the first test is IL-1β release upon NLRP3 activation in peripheral blood mononuclear cells (PBMC). The experiment in a line: PBMC IC50 determination assay: inhibition of IL-1β release upon NLRP3 activation. The class given is cell-based. Conditions: PBMC primed with LPS 3 h, compound 30 min, stimulated with ATP (5 mM) or nigericin (10 μM) 1 h; IL-1β by ELISA (Protocol A) or HTRF (Protocol B). The method, then:
PBMC IC50 determination assay. The compounds of the present disclosure were tested for their inhibitory activity against IL-1β release upon NLRP3 activation in peripheral blood mononuclear cells (PBMC).
Protocol A. PBMC were isolated from buffy coats by density gradient centrifugation on Histopaque-1077 (Sigma, cat no. 10771). Isolated cells were seeded into the wells of a 96-well plate and incubated for 3 h with lipopolysaccharide (LPS). Following medium exchange, the compounds of the present disclosure were added (a single compound per well) and the cells were incubated for 30 min. Next, the cells were stimulated either with ATP (5 mM) or nigericin (10 μM) for 1 h and the cell culture media from the wells were collected for further analysis.
The release of IL-1β into the media was determined by a quantitative detection of IL-1β in the media using an IL-1β enzyme-linked immunosorbent assay (ELISA) Ready-SET-Go!, eBioscience cat. No. 88-7261-88. Briefly, in a first step, high affinity binding plates (Corning, Costar 9018 or NUNC Maxisorp Cat No. 44-2404) were coated overnight at 4° C. with specific capture antibody included in the kit (anti-human IL-1β ref. 14-7018-68). Subsequently, plates were blocked with blocking buffer for 1 h at room temperature (rt) and after washing with a buffer (PBS with 0.05% Tween-20) incubated with protein standard and culture media. After 2 h of incubation at rt, plates were washed and incubated with biotinylated detection antibody included in the kit (anti-human IL-1β Biotin ref 33-7110-68) for 1 h at rt. Plates were washed and incubated with HRP-streptavidin for 30 min at rt and washed again. The signal was developed after addition of 3,3′,5,5′-tetramethylbenzidine-peroxidase (TMB) until colour appeared and the reaction was stopped by 2 M H2SO4. A microplate spectrophotometer (BioTek) was used to detect signals with 450 nm. The detection range of IL-1β ELISA was […].
Protocol B. PBMC were isolated from buffy coats by density gradient centrifugation on Histopaque-1077 (Sigma, cat no. 10771). Isolated cells were seeded into the wells (280,000 cells/well) of a 96-well plate and incubated for 3 h with lipopolysaccharide (LPS, 1 μg/mL diluted 1000× from a 1 mg/mL stock solution). The compounds of the present disclosure were added (a single compound per well) and the cells were incubated for 30 min. Next, the cells were stimulated with ATP (5 mM final concentration diluted 20× from a 100 mM stock solution) for 1 h and the cell culture media from the wells were collected for further analysis.
The release of IL-1β into the media was determined by quantitative detection of IL-1β in the media using HTRF®, CisBio cat. No. 62HIL1BPEH. Briefly, cell culture supernatant were dispensed directly into the assay plate containing antibodies labelled with the HTRF® donor and acceptor. A microplate spectrophotometer (BMG) was used to detect signals at 655 nm and 620 nm. The detection range of IL-1β HTRF® was 39-6500 μg/mL.
For the compound `CC(C)c1nn(CC(=O)Nc2ncc(F)cn2)c(=O)c2cn(C3CC3)nc12` [Compound 17, 2-(2-Cyclopropyl-7-isopropyl-4-oxo-pyrazolo[3,4-d]pyridazin-5-yl)-N-(5-fluoropyrimidin-2-yl) acetamide], the IC50 was 100 to 1000 nM.

The test is the same for the next values; noted with them: PBMC, PBMC primed with LPS 3 h, compound 30 min, stimulated with ATP (5 mM) or nigericin (10 μM) 1 h; IL-1β by ELISA (Protocol A) or HTRF (Protocol B).
As for `CC(C)c1nn(CC(=O)NC2CC3(COC3)C2)c(=O)c2cnc(C3CC3)cc12` [Compound 18, 2-(7-Cyclopropyl-1-isopropyl-4-oxo-pyrido[3,4-d]pyridazin-3-yl)-N-(2-oxaspiro[3.3]heptan-6-yl)acetamide], the concentration for half-maximal inhibition (IC50) lay in the range of 10000 to 50000 nM. In the case of `Cc1nc(NC(=O)Cn2nc(C(C)C)c3cc(C4CC4)ncc3c2=O)ns1` [Compound 19, 2-(7-Cyclopropyl-1-isopropyl-4-oxo-pyrido[3,4-d]pyridazin-3-yl)-N-(5-methyl-1,2,4-thiadiazol-3-yl)acetamide], the IC50 was in the range of 10000 to 50000 nM.

Take `CCc1nn(CC(=O)Nc2ncc(F)cn2)c(=O)c2cn(CC)nc12` [Compound 20, 2-(2,7-Diethyl-4-oxo-pyrazolo[3,4-d]pyridazin-5-yl)-N-(5-fluoropyrimidin-2-yl)acetamide]: the concentration for half-maximal inhibition (IC50) fell in the range of 10000 to 50000 nM. The same measure, in the same setting: in the case of `CCc1nn(CC(=O)Nc2ncccn2)c(=O)c2cn(CC)nc12` [Compound 21, 2-(2,7-Diethyl-4-oxo-pyrazolo[3,4-d]pyridazin-5-yl)-N-pyrimidin-2-yl-acetamide] it was 10000 to 50000 nM; in that of `CCc1nn(CC(=O)NC2CC3(COC3)C2)c(=O)c2cn(CC)nc12` [Compound 22, 2-(2,7-Diethyl-4-oxo-pyrazolo[3,4-d]pyridazin-5-yl)-N-(2-oxaspiro[3.3]heptan-6-yl)acetamide], 10000 to 50000 nM. Still for that read-out and setting: in the case of `CCc1cc2c(=O)n(CC(=O)Nc3ncc(F)cn3)nc(C(C)C)c2o1` [Compound 23, 2-(2-Ethyl-7-isopropyl-4-oxo-furo [2,3-d]pyridazin-5-yl)-N-(5-fluoropyrimidin-2-yl) acetamide] it was 100 to 1000 nM; in that of `CCc1cc2c(C(C)C)nn(CC(=O)Nc3ncc(F)cn3)c(=O)c2s1` [Compound 24, 2-(2-Ethyl-4-isopropyl-7-oxo-thieno[2,3-d]pyridazin-6-yl)-N-(5-fluoropyrimidin-2-yl) acetamide], at most 100 nM. Consider `CC(C)c1nn(CC(=O)NC2CC3(COC3)C2)c(=O)c2ccc(C3CC3)nc12` [Compound 25, 2-(2-Cyclopropyl-8-isopropyl-5-oxo-pyrido[2,3-d]pyridazin-6-yl)-N-(2-oxaspiro[3.3]heptan-6-yl)acetamide], for which the IC50 is 1000 to 3000 nM. Same read-out and setting: in the case of `Cc1nc(NC(=O)Cn2nc(C(C)C)c3nc(C4CC4)ccc3c2=O)ns1` [Compound 26, 2-(2-Cyclopropyl-8-isopropyl-5-oxo-pyrido[2,3-d]pyridazin-6-yl)-N-(5-methyl-1,2,4-thiadiazol-3-yl)acetamide] it was 100 to 1000 nM. For the compound `CC(C)c1nn(CC(=O)Nc2ncccn2)c(=O)c2ccc(C3CC3)nc12` [Compound 27, 2-(2-Cyclopropyl-8-isopropyl-5-oxo-pyrido [2,3-d]pyridazin-6-yl)-N-pyrimidin-2-yl-acetamide], the half-maximal inhibitory concentration (IC50) was in the range of 100 to 1000 nM. Still for that read-out and setting: in the case of `CC(C)c1nn(CC(=O)Nc2ncc(F)cn2)c(=O)c2ccc(C3CC3)nc12` [Compound 28, 2-(2-Cyclopropyl-8-isopropyl-5-oxo-pyrido[2,3-d]pyridazin-6-yl)-N-(5-fluoropyrimidin-2-yl)acetamide] it was 100 to 1000 nM. `CC(C)c1nn(CC(=O)N[C@@H]2CCCN(C3CCC3)C2)c(=O)c2sc(Br)cc12` [Compound 29, 2-(2-Bromo-4-isopropyl-7-oxo-thieno[2,3-d]pyridazin-6-yl)-N-[(3R)-1-cyclobutyl-3-piperidyl]acetamide] yielded an IC50 of 100 to 1000 nM. The same measure, in the same setting: with `CC(C)c1nn(CC(=O)N[C@@H]2CCCN(C3CCC3)C2)c(=O)c2sc(C#N)cc12` [Compound 30, 2-(2-Cyano-4-isopropyl-7-oxo-thieno[2,3-d]pyridazin-6-yl)-N-[(3R)-1-cyclobutyl-3-piperidyl]acetamide] the figure was 3000 to 10000 nM.
